Results as given in article PMC7435819, “Towards the Inhibition of Protein–Protein Interactions (PPIs) in STAT3: Insights into a New Class of Benzothiadiazole Derivatives” (Molecules, 2020).
Read-outs that look alike come from different tables or passages of the source.

What was measured:
[1] = target: T1, STAT3 (Homo sapiens, UniProt P40763); experiment: AlphaScreen-based competitive binding assay, STAT3 SH2 domain vs FITC-GpYLPQTV; conditions: for IC50: STAT3 wild-type (WT), read-out: STAT3 inhibition: IC50
T1 construct: a truncated form of STAT3 (136-705) was constructed and chromatographically purified; made in house
T1 sequence (P40763 136-705): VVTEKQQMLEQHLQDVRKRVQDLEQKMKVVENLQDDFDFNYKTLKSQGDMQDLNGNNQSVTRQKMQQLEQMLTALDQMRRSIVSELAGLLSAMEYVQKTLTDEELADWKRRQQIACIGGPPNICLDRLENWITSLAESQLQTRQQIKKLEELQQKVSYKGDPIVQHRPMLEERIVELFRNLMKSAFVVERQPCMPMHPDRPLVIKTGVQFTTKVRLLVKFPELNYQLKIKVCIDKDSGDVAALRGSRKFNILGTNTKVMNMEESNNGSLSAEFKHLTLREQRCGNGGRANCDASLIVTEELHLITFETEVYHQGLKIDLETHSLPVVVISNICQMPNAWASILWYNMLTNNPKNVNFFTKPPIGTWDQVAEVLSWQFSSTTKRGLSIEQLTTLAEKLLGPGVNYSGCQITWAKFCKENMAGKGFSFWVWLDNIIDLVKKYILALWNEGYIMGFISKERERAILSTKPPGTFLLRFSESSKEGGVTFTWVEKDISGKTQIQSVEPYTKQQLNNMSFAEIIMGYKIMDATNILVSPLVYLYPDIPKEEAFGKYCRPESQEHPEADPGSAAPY
Source text: AlphaScreen is an in vitro competitive binding test used to identify compounds that are able to inhibit the binding of proteins containing an SH2 domain to their corresponding phosphopeptides (5-carboxyfluorescein (FITC)-GpYLPQTV for STAT3 and FITC-GpYDKPHVL for STAT1) (Table 2).
AlphaScreen is a bead-based non-radioactive assay system for the detection of biomolecular interactions in a microtiter plate format. The binding of biological partners brings donor and acceptor beads into close proximity and, as a result, a fluorescent signal between 520 and 620 nm was produced. The AlphaScreen-based assays were performed in a final reaction volume of 25 μL of the assay buffer containing 10 mM HEPES–NaOH (pH 7.4), 50 mM NaCl, 1 mM EDTA (pH 8.0), 0.1% NP-40, and 10 ng/μL bovine serum albumin (BSA) in a 96-well microtiter plate at 25 °C. The pTyr peptide probes used in this study were 5-carboxyfluorescein (FITC)-GpYLPQTV for STAT3 and (FITC)-GpYDKPHVL for STAT1. Plasmid construction and protein expression were performed as previously described; the experimental method is briefly summarized as follows. Considering that the expression of the full-length protein is troublesome, a truncated form of STAT3 (136-705) was constructed and chromatographically purified (AKTA FPLC system; GE Healthcare Bio-Sciences, Piscataway, NJ, USA). The soluble STAT3 fraction was loaded on a HisTrap™ column (GE Healthcare Bio-Sciences) and eluted with an imidazole gradient (50 mM Tris–HCl pH 7.4, 300 mM NaCl, 0.2 mM EDTA, 0.1% (w/v) NP-40, 5 mM β-mercaptoethanol, 10% (v/v) glycerol, and 10–300 mM imidazole). An SDS-PAGE stained with Coomassie Brilliant Blue (CBB) was performed to check the purity of the protein (see Figure S71). Subsequently, the protein was dialyzed (10 mM HEPES-NaOH pH 7.4, 50 mM NaCl, 10 mM β-mercaptoethanol, 0.1 mM EGTA, 0.02% (w/v) NP-40, 0.2 mM phenylmethylsulphonyl fluoride (PMSF), and 10% (v/v) glycerol).
Firstly, 75 nM of each SH2-containing protein were incubated with the test compound (at the following concentrations: 1, 3, 10, and 30 µM) for 15 min. Each protein sample was then incubated for 90 min with 50 nM of its corresponding FITC-pTyr peptide and simultaneously mixed with streptavidin-coated donor beads and anti-FITC acceptor beads before detection at 570 nm using EnVison Xcite (PerkinElmer, Waltham, MA, USA).

[2] = 30 µM, n.a.: not active, read-out: STAT3 % Inhibition (30 µM)
[3] = Table 1, AlphaScreen-based assay at 30 µM, STAT3-SH2 domain, read-out: % Inhibition

melting point [°C] | inhibition at 30 µM [1, 2] [%] | IC50 [1] [µM] | inhibition at 30 µM [1, 3] [%] | Compound
 | 11.5 ± 0.8 | > 30 |  | O=S1(=O)Cc2ccccc2C1 [Compound 6]
 |  |  | 79 | CN1C(Cl)=NS(=O)(=O)c2ccccc21 [I]
180 to 185 | 6.1 ± 0.9 | > 30 |  | O=S1(=O)Nc2ccc(-c3ccccc3)cc2N1 [Compound 1i, 5-Phenyl-1H,3H-2,1,3-benzothiadiazole-2,2-dioxide]
 | 3.5 ± 5.6 | > 30 |  | Oc1nc2ccccc2[nH]1 [Compound 5, 2,3-Dihydro-1H-1,3-benzodiazol-2-one]
 |  |  | 43.4 | CCN1C(Cl)=NS(=O)(=O)c2ccccc21 [II]
 | 16.4 ± 0.8 | > 30 |  | O=S1(=O)Nc2ccccc2N1 [Compound 1a, 1H,3H-2,1,3-Benzothiadiazole-2,2-dioxide]

Further lines, the compound ahead of its results:

Compound | melting point [°C] | inhibition at 30 µM [1, 2] [%] | IC50 [1] [µM] | inhibition at 30 µM [1, 3] [%]
O=C(CCc1ccc2c(c1)NS(=O)(=O)N2)Nc1ccccc1 [Compound 1h, 3-(2,2-Dioxo-1H,3H-2,1,3-benzothiadiazol-5-yl)-N-phenylpropanamide] | 192 to 197 |  |  | 
NC1=NS(=O)(=O)Nc2nonc21 [III] |  |  |  | 85.4
O=C(CN1c2ccccc2NS1(=O)=O)NCCc1ccccc1 [Compound 4, 2-(2,2-Dioxo-3H-2,1,3-benzothiadiazol-1-yl)-N-(2-phenylethyl)acetamide] | 172 | 17.3 ± 1.3 | > 30 | 
O=S1(=O)N(Cc2ccccc2)c2ccccc2N1Cc1ccccc1 [Compound 3, 1,3-Dibenzyl-2,1,3-benzothiadiazole-2,2-dioxide] | 134 |  |  | 
Cc1ccc2c(c1)N(C)S(=O)(=O)N2C [Compound 2b, 1,3,5-Trimethyl-2,1,3-benzothiadiazole-2,2-dioxide] |  | 8.9 ± 1.1 | > 30 | 
CC(=O)Nc1ccc2c(c1)NS(=O)(=O)N2 [Compound 1f, N-(2,2-Dioxo-1H,3H-2,1,3-benzothiadiazol-5-yl)acetamide] |  | 18.9 ± 2.3 | > 30 | 
Cc1cc2c(cc1Br)NS(=O)(=O)N2 [Compound 2a, 5-Bromo-6-methyl-1H,3H-2,1,3-benzothiadiazole-2,2-dioxide] | 185 | 25.6 ± 1.2 | > 30 | 
CC(C)CCNC(=O)CCc1ccc2c(c1)NS(=O)(=O)N2 [Compound 1g, 3-(2,2-Dioxo-1H,3H-2,1,3-benzothiadiazol-5-yl)-N-(3-methylbutyl)propanamide] |  | 11 ± 2.1 | > 30 | 
O=S1(=O)Nc2ccc(C(F)(F)F)cc2N1 [Compound 1c, 5-(Trifluoromethyl)-1H,3H-2,1,3-benzothiadiazole-2,2-dioxide] | 143 | 8.2 ± 1.6 | > 30 | 
O=S1(=O)Nc2ccc(Cl)cc2N1 [Compound 1e, 5-Chloro-1H,3H-2,1,3-benzothiadiazole-2,2-dioxide] |  | 28.2 ± 1.4 | > 30 | 
Cc1ccc2c(c1)NS(=O)(=O)N2 [Compound 1b, 5-Methyl-1H,3H-2,1,3-benzothiadiazole-2,2-dioxide] | 157 | 14.5 ± 0.6 | > 30 | 
